The values that follow come from patent publication US5567676A, “Glycopeptide antibiotics” (Gruppo Lepetit S.p.A, priority 1986, dated 1996).

Test [1] concerns different microorganism cultures. The test can be described thus: In vitro antibacterial activity, standard dilution tests (microorganisms of Table I). Type of test: cell-based.
The test system of the next test is Staph. aureus L165. The test can be described thus: MIC, broth dilution test. The format is cell-based. To be noted: Isosensitest broth, 24 h. In general terms: Dilution methods test growth across graded concentrations, often in twofold steps.
Test [2] has as its system Staph. haemolyticus L602 (clinical isolate). The test can be described thus: MIC, broth dilution test. The following applies: Isosensitest broth, 24 h, 37° C. Type of test: cell-based.
A further test has as its system Strep. pyogenes L49 C203. The test can be described thus: MIC, broth dilution test. Type of test: cell-based. To be noted: Todd-Hewitt broth, 24 h, 37° C.
The subject of test [3] is Strep. pneumoniae L44 UC41. Put plainly: MIC, broth dilution test. The following applies: Todd-Hewitt broth, 24 h, 37° C. The format is cell-based.
For test [4], the system named is Strep. faecalis L149 ATCC 7080. The test can be described thus: MIC, broth dilution test. The format is cell-based. To be noted: Isosensitest broth, 24 h, 37° C.
Test [5] deals with Strep. mitis L796 (clinical isolate). Put plainly: MIC, broth dilution test. The format is cell-based. The following applies: Todd-Hewitt broth, 24 h, 37° C.
Test [6] relates to Neisseria gonorrhoeae L997 ISM68/126. The test can be described thus: MIC, broth dilution test. The format is cell-based. To be noted: GC base broth +1% Isovitalex, 48 h, CO2-enriched atmosphere, 37° C.
The test system of test [7] is Haemophilus influenzae L 970 type b ATCC 19418. The test can be described thus: MIC, broth dilution test. Type of test: cell-based. To be noted: Brain Heart broth +1% Supplement C, 48 h, 37° C.
The subject of test [8] is Proteus vulgaris L79 X19H ATCC881. Put plainly: MIC, broth dilution test. The format is cell-based. The following applies: Isosensitest broth, 24 h, 37° C.
The test system of test [9] is Pseudomonas aeruginosa L4 ATCC10145. Put plainly: MIC, broth dilution test. Type of test: cell-based. The following applies: Isosensitest broth, 24 h, 37° C.
Test [10] has as its system Ureaplasma urealyticum L1479 (clinical isolate). The test can be described thus: MIC, broth dilution test. Type of test: cell-based. The following applies: PPLO broth with supplements, 24 h, about 10^4 color-changing units/ml, 37° C.
Test [11] relates to Klebsiella pneumoniae L142. The test can be described thus: MIC, broth dilution test. Type of test: cell-based. To be noted: Isosensitest broth, 24 h, 37° C.
The subject of a further test is S. pyogenes C 203 (L 49). The test can be described thus: Experimental septicemia in the mice. The format is in vivo, CD-1 mice. The following applies: mice infected i.p. with S. pyogenes C 203 (L 49); compound s.c. immediately after infection; survival on the 7th day, Spearman and Karber. On the procedure: The antimicrobial activity of the compounds of the invention is confirmed also in experimental septicemia in the mice. Control and treatment groups may include ten CD-1 mice (Charles River) weighing 18-22 g. They are infected intraperitoneally with 0.5 ml of bacterial suspension prepared by diluting an overnight culture of S. pyogenes C 203 (L 49) with sterile peptonized saline. Inocula are adjusted so that untreated animals die of septicemia within 48 h. The compounds to be tested are administered subcutaneously immediately after infection. On the 7th day, the ED50 in mg/kg is calculated by the method of Spearman and Karber (D. J. Finney "Statistical Methods in Biological Assay" Griffin, page 524, 1952) from the percentage of surviving animals at each dose.

The test system of test [12] is Staph. epidermidis L147 ATCC 12228 (coagulase negative). The following applies: Isosensitest broth, 24 h, 37° C.
Test [13] has as its system Clostridium perfringens L290 ISS 30543. To be noted: AC broth, 24 h, anaerobic atmosphere, 37° C.

A word on the ED50: it is the dose that gives a 50% effect, or the effect in half of the subjects.

Some results are limits rather than exact numbers.

In the case of “antibiotic A 40926 aminoglucuronyl aglycon”, in [1], the “level of antimicrobial activity compared with de-acyl antibiotic A 40926 (Table I)” value is given as “substantially the same level of antimicrobial activity as that reported above for de-acyl antibiotic A 40926”.
Take de-acyl antibiotic A 40926: the M.I.C. turned out to be 2 µg/mL with Staph. aureus L165 (Staph. aureus (10^6 cfu/ml)); 2 µg/mL with Staph. aureus L165 (Staph. aureus (30% bovine serum)); 1 µg/mL with Staph. aureus L165 (Staph. aureus L165, 37° C., about 10^4-10^5 cfu/ml); 32 µg/mL in test [2]; 0.25 µg/mL in the test on Strep. pyogenes L49 C203; 0.25 µg/mL in test [3]. Further, the M.I.C. in [4] was 2 µg/mL; in [5], 0.5 µg/mL; in [6], 64 µg/mL; in test [7], 128 µg/mL; in test [8], greater than 128 µg/mL; in test [9], greater than 128 µg/mL. Moreover, the M.I.C. in test [10] is greater than 128 µg/mL; in [11], greater than 128 µg/mL; in test [12], 2 µg/mL; in test [13], 0.13 µg/mL. Moreover, in the test with S. pyogenes C 203 (L 49), the ED50 turned out to be 2.33 mg/kg.
In the case of de-acyl antibiotic A 40926 P, in [1], the “level of antimicrobial activity compared with de-acyl antibiotic A 40926 (Table I)” value is on record as “substantially the same level of antimicrobial activity as that reported above for de-acyl antibiotic A 40926”.
